Data: patent US20240358842A1, “PROTEIN STABILIZING COMPOUNDS CONTAINING USP7 LIGANDS” (Stablix, Inc., priority 2021, published 2024)
Like-named read-outs stand apart in the source and are kept apart here.

Legend:
USP7 = USP7 (Homo sapiens, UniProt Q93009); test: Ub-Rho cleavage assay; format: biochemical; conditions: Ub-Rho substrate, recombinant USP7; read-out: Ub (Rho) USP7.1 (IC50)
Protocol: All fluorescence measurements were performed on a Molecular Devices FlexStation3 with excitation at 480 nm and emission 540 nm, PMT Gain: Medium, Flash Number: 10. […] Assay buffer for all measurements was 50 mM HEPES, 100 mM NaCl, 0.5 mM EDTA, 1 mM TCEP, 0.1 mg/ml BSA, 0.01% Tween-20, pH 7.8. […] Serial dilutions were made with a Mosquito HTS (SPT Labtech) nanoliter liquid handler. 200 nL of each compound in duplicate or DMSO control were transferred to the assay plate. The first two columns served as positive controls. 9.8 μl per well of USP7 working solution was added to the assay plate. Compound+Protein was incubated for 25 min at 25° C. 10 uL of Ub-Rho substrate was added per well and incubated for an additional 15 min at 25° C. Fluorescence was then measured. Percent response relative to DMSO controls was calculated in GraphPad or Scinamic, and the data was fitted to a non-linear regression to determine IC50 values.

USP7 CD + UBL 1-5 = target: T1, USP7 CD + UBL 1-5 (Homo sapiens, UniProt Q93009); test: Surface plasmon resonance assay (SPR); format: binding
T1 construct: USP7 CD +
Protocol: The surface plasmon resonance experiments were performed using a Cytiva (formerly GE Healthcare) Biacore 8K equipped with a Series S Sensor Chip SA. The ligands were immobilized via a biotin-modified biotin acceptor peptide. USP7 Ligands were diluted in running buffer (HBS-P+2% DMSO; 10 mM HEPES, pH 7.4, 150 mM NaCl, 1 mM DTT, 0.05% P20, 2% DMSO) to 100 μg/mL and injected at […] until a density between 500-10,000 RU was reached on flow-cell two of each channel, and flow cell one was left blank to serve as a reference surface. Both surfaces were washed until a stable baseline was achieved then 30 startup cycles to condition the surface. To collect kinetic and steady-state binding data, the small molecule analytes were prepared in three-fold dilution series in HBS-P+2% DMSO running buffer. Analytes were injected over both flow cells at a flow rate of […] at 25° C. The complex was allowed to associate for 60 seconds and dissociate for 300 seconds. Data were collected at 10 Hz. The data were fit to a simple 1:1 interaction model global data analysis within Cytiva Biacore Insight Evaluation Software.

[1] = kinetic KD, read-out: SPR USP7 CD + UBL 1-5 (KD_kinetic)
[2] = steady-state KD, read-out: SPR USP7 CD + UBL 1-5 (KD_ss)

USP7, sequence (Q93009 whole entry): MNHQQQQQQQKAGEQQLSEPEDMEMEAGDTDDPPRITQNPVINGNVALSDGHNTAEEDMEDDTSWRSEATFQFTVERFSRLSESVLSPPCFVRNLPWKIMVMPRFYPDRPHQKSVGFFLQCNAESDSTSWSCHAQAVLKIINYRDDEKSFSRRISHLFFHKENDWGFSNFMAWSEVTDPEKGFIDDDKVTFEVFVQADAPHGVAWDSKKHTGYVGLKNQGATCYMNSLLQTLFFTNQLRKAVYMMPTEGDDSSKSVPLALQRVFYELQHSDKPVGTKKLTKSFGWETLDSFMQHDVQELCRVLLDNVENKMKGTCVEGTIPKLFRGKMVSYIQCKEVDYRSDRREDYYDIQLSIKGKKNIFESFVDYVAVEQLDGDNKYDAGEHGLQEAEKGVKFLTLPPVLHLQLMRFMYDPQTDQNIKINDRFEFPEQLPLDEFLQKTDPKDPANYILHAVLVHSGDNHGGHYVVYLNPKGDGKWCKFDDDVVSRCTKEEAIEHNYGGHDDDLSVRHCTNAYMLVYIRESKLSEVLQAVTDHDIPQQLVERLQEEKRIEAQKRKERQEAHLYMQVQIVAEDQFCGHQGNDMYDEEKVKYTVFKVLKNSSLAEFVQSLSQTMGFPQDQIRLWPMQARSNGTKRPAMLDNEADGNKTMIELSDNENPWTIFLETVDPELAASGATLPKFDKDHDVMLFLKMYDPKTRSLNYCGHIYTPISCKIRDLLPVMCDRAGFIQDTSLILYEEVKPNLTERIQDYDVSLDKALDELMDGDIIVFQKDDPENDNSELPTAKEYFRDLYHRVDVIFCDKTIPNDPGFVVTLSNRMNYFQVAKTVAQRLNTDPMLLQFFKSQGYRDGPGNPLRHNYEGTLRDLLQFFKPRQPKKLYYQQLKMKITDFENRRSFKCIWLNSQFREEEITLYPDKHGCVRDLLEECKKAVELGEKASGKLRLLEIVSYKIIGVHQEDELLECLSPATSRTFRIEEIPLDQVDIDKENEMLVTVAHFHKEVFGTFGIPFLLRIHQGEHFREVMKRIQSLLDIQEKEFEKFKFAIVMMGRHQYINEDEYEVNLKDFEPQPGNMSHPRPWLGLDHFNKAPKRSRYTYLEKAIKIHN
T1 sequence (Q93009 208-1102 limits assumed): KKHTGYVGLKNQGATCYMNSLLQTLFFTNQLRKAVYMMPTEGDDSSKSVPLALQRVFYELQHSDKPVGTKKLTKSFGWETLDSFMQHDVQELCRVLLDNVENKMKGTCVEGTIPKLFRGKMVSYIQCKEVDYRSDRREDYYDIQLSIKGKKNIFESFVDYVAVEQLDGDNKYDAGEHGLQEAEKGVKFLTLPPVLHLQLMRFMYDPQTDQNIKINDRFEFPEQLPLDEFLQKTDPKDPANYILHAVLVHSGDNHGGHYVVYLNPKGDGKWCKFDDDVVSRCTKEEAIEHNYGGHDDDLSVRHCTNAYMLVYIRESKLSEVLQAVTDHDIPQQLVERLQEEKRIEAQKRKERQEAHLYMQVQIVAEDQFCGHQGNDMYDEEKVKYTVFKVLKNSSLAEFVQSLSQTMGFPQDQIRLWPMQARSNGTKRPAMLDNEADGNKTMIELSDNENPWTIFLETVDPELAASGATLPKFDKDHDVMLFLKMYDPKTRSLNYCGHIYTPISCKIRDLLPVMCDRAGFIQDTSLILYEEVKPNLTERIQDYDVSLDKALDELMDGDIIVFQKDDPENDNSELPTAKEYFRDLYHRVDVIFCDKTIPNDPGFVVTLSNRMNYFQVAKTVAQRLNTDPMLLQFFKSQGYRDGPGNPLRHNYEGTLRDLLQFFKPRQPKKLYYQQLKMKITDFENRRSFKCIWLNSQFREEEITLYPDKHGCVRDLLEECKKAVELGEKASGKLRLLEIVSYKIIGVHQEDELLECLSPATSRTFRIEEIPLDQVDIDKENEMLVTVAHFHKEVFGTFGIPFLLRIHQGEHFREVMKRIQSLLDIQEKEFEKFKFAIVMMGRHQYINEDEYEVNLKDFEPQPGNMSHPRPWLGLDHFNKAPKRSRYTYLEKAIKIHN

Row | SMILES | IC50 (USP7) [µM] | Kd (USP7 CD + UBL 1-5; [1]) [µM] | Kd (USP7 CD + UBL 1-5; [2]) [µM]
1 | Cc1cc(Cl)cc(-c2ccnc3cc(CN4C(=O)CCC4=O)sc23)c1OC1CCN(CCCNC(=O)OC(C)(C)C)CC1 [U9] | < 1 | < 1 | < 1
2 | Cc1cc(Cl)cc(-c2ccnc3cc(CN4C(=O)CCC4=O)sc23)c1OC1CCNCC1 [U16] | < 1 | < 1 | < 1
3 | C[C@H](CC(=O)N1CCC(O)(Cn2cnc3cc(N(C)CCN(C)CCCNC(=O)OC(C)(C)C)ccc3c2=O)CC1)c1ccccc1 [U5] | < 1 | < 1 | < 1
4 | Cc1cc(Cl)cc(-c2ccnc3cc(CN4C(=O)CCC4=O)sc23)c1OC1CCN(C(=O)CCNC(=O)OC(C)(C)C)CC1 [U13] | 1 to 100 |  | 1 to 100
5 | CN1CCCn2nc(C(=O)Nc3nc4ccc(NS(=O)(=O)c5nnc[nH]5)cc4s3)cc2C1 [U116] | > 100 |  | 1 to 100
6 | CCc1c(-c2ccc(C(=O)NC)cc2)cnc(NC(=O)CN)c1-c1ccc(O)cc1 [U48] | > 100 |  | 1 to 100
7 | Cc1cc(Cl)cc(-c2ccnc3cc(CN4C(=O)CCC4=O)sc23)c1OC1CCN(C(=O)CCCCCCCCNC(=O)OC(C)(C)C)CC1 [U31] | > 100 |  | 1 to 100
8 | C[C@H](CC(=O)N1CCC(O)(Cn2cnc3c(-c4ccc(CNC(=O)CCCCNC(=O)OC(C)(C)C)cc4)n(C)nc3c2=O)CC1)c1ccccc1 [U131] | < 1 | < 1 | 
9 | O=C(Nc1nc2ccc(NS(=O)(=O)c3cccs3)cc2s1)c1ccco1 [U68] | > 100 |  | 1 to 100
10 | CN1CCCn2nc(C(=O)Nc3nc4ccc(NS(=O)(=O)c5cn6c(n5)CCC6)cc4s3)cc2C1 [U102] | > 100 |  | 1 to 100
11 | CCc1c(-c2ccc(C(=O)NCCCNC(=O)CCNC(=O)OC(C)(C)C)nc2)cnc(N)c1-c1ccc(O)cc1 [U53] | 1 to 100 |  | 1 to 100
12 | Nc1ncc(-c2ccc(O)cc2)cc1-c1ccc(O)cc1 [U24] | 1 to 100 |  | 1 to 100
13 | Cn1ccc(C(=O)Nc2nc3ccc(NS(=O)(=O)c4cccs4)cc3s2)n1 [U107] | > 100 |  | 1 to 100
14 | CN1CCCn2nc(C(=O)Nc3nc4ccc(NS(=O)(=O)c5cccnc5)cc4s3)cc2C1 [U103] | > 100 |  | 1 to 100
15 | C[C@H](CC(=O)N1CCC(O)(Cn2cnc3c(C#CCO)n(C)nc3c2=O)CC1)c1ccccc1 [U23] | < 1 |  | < 1
16 | CN1CCCn2nc(C(=O)Nc3nc4ccc(N(C5CCNC5)S(=O)(=O)c5cccs5)cc4s3)cc2C1 (centres unmarked) [U120] | > 100 |  | 1 to 100
